How the values were obtained:
Experiment in all cases: viability relative to DMSO control (fraction); higher = less drug effect (more viable cells)
Conditions in all cases: 48 h
[1] = compound: CC(=O)c1c(C)c2cnc(Nc3ccc(N4CCNCC4)cn3)nc2n(C2CCCC2)c1=O [Palbociclib]
Outline: (§1)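 Viability was quantified by CellTiter-Glo luminescence and related to the median of 16 inner DMSO wells. Before that, primary mononuclear tumour cells, fresh or cryopreserved and Ficoll-isolated from blood or bone marrow or prepared from processed lymph node, were plated at 4 × 10^4 cells per well in 384-well plates containing pre-plated compounds at five concentrations, one well each. Plates were incubated in RPMI-1640 with penicillin/streptomycin, L-glutamine and human serum at 37 °C and 5% CO2 for 48 h.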

[2] = compound: CC(C)N(CCCNC(=O)Nc1ccc(C(C)(C)C)cc1)C[C@H]1O[C@@H](n2cc(Br)c3c(N)ncnc32)[C@H](O)[C@@H]1O [SGC 0946]
Outline: as §1

[3] = compound: CC1(C)CCC(c2ccc(Cl)cc2)=C(CN2CCN(c3ccc(C(=O)NS(=O)(=O)c4ccc(N[C@H](CCN5CCOCC5)CSc5ccccc5)c(S(=O)(=O)C(F)(F)F)c4)cc3)CC2)C1 [Navitoclax]
Outline: as §1

[4] = compound: CCN(CCCOc1ccc2c(Nc3cc(CC(=O)Nc4cccc(F)c4)[nH]n3)ncnc2c1)CCOP(=O)(O)O [Barasertib]
Outline: as §1

[5] = compound: CCN(c1cc(-c2ccc(CN3CCOCC3)cc2)cc(C(=O)NCc2c(C)cc(C)[nH]c2=O)c1C)C1CCOCC1 [EPZ-6438]
Outline: as §1

[6] = compound: CCc1ccc(/C=C2/SC(=S)NC2=O)cc1
Outline: as §1

[7] = compound: CO[C@@H]1[C@H](N(C)C(=O)c2ccccc2)C[C@H]2O[C@]1(C)n1c3ccccc3c3c4c(c5c6ccccc6n2c5c31)C(=O)NC4 [Midostaurin hydrate]
Outline: as §1

[8] = compound: COc1cc([C@@H]2c3cc4c(cc3[C@@H](O[C@@H]3O[C@@H]5CO[C@@H](C)O[C@H]5[C@H](O)[C@H]3O)[C@H]3COC(=O)[C@H]23)OCO4)cc(OC)c1O [Etoposide]
Outline: as §1

[9] = compound: C[C@@H]1CCN(C(=O)CC#N)C[C@@H]1N(C)c1ncnc2[nH]ccc12 [Tofacitinib]
Outline: as §1

[10] = compound: C[C@H](NC(=O)CCC(F)(F)F)C(=O)N[C@@H]1C(=O)N(CCO)c2ncccc2-c2ccccc21
Outline: as §1

[11] = compound: C[C@H](Nc1ncnc2nc[nH]c12)c1cc2cccc(Cl)c2c(=O)n1-c1ccccc1 [Duvelisib]
Outline: as §1

[12] = compound: Nc1cccc2c1C(=O)N(C1CCC(=O)NC1=O)C2=O [Pomalidomide]
Outline: as §1

[13] = compound: O=C(/C=C\n1cnc(-c2cc(C(F)(F)F)cc(C(F)(F)F)c2)n1)NNc1cnccn1 [Selinexor]
Outline: as §1

[14] = compound: O=C(Nc1nc2cccc(-c3ccc(CN4CCS(=O)(=O)CC4)cc3)n2n1)C1CC1 [Filgotinib]
Outline: as §1

[15] = compound: O=C(O)CCCc1ccc(N(CCCl)CCCl)cc1 [Chlorambucil]
Outline: as §1

## primary AML patient cells (S056)
[1]; 0.024 µM
  viability: 0.981
[1]; 0.12 µM
  viability: 0.945
[1]; 0.6 µM
  viability: 0.551
[1]; 3 µM
  viability: 0.511
[1]; 15 µM
  viability: 0.169
[2]; 0.024 µM
  viability: 0.869
[2]; 0.12 µM
  viability: 0.736
[2]; 0.6 µM
  viability: 0.996
[2]; 3 µM
  viability: 0.96
[2]; 15 µM
  viability: 0.825
[3]; 0.0032 µM
  viability: 0.818
[3]; 0.016 µM
  viability: 0.547
[3]; 0.08 µM
  viability: 0.515
[3]; 0.4 µM
  viability: 0.182
[3]; 2 µM
  viability: 0.0463
[4]; 0.0008 µM
  viability: 0.82
[4]; 0.004 µM
  viability: 1.33
[4]; 0.02 µM
  viability: 0.68
[4]; 0.1 µM
  viability: 0.551
[4]; 0.5 µM
  viability: 0.431
[5]; 0.024 µM
  viability: 1.17
[5]; 0.12 µM
  viability: 1.17
[5]; 0.6 µM
  viability: 0.909
[5]; 3 µM
  viability: 1.09
[5]; 15 µM
  viability: 0.809
[6]; 0.024 µM
  viability: 0.77
[6]; 0.12 µM
  viability: 0.689
[6]; 0.6 µM
  viability: 0.789
[6]; 3 µM
  viability: 0.807
[6]; 15 µM
  viability: 0.951
[7]; 0.024 µM
  viability: 0.6
[7]; 0.12 µM
  viability: 0.507
[7]; 0.6 µM
  viability: 1.43
[7]; 3 µM
  viability: 1.64
[7]; 15 µM
  viability: 1.28
[8]; 0.032 µM
  viability: 0.875
[8]; 0.16 µM
  viability: 0.948
[8]; 0.8 µM
  viability: 0.714
[8]; 4 µM
  viability: 0.598
[8]; 20 µM
  viability: 0.392
[9]; 0.024 µM
  viability: 0.85
[9]; 0.12 µM
  viability: 0.802
[9]; 0.6 µM
  viability: 0.689
[9]; 3 µM
  viability: 0.657
[9]; 15 µM
  viability: 0.448
[10]; 0.016 µM
  viability: 1.04
[10]; 0.08 µM
  viability: 0.994
[10]; 0.4 µM
  viability: 0.979
[10]; 2 µM
  viability: 1.55
[10]; 10 µM
  viability: 0.983
[11]; 0.0016 µM
  viability: 1.02
[11]; 0.008 µM
  viability: 0.696
[11]; 0.04 µM
  viability: 0.852
[11]; 0.2 µM
  viability: 0.737
[11]; 1 µM
  viability: 0.686
[12]; 0.0032 µM
  viability: 0.921
[12]; 0.016 µM
  viability: 0.823
[12]; 0.08 µM
  viability: 0.967
[12]; 0.4 µM
  viability: 0.791
[12]; 2 µM
  viability: 0.908
[13]; 0.008 µM
  viability: 0.787
[13]; 0.04 µM
  viability: 0.685
[13]; 0.2 µM
  viability: 0.5
[13]; 1 µM
  viability: 0.435
[13]; 5 µM
  viability: 0.324
[14]; 0.024 µM
  viability: 1.08
[14]; 0.12 µM
  viability: 0.965
[14]; 0.6 µM
  viability: 0.78
[14]; 3 µM
  viability: 0.376
[14]; 15 µM
  viability: 0.391
[15]; 0.032 µM
  viability: 1.13
[15]; 0.16 µM
  viability: 1.03
[15]; 0.8 µM
  viability: 1.04
[15]; 4 µM
  viability: 0.942
[15]; 20 µM
  viability: 0.287

## primary AML patient cells (S081)
[1]; 0.024 µM
  viability: 0.959
[1]; 0.12 µM
  viability: 0.916
[1]; 0.6 µM
  viability: 0.954
[1]; 3 µM
  viability: 0.877
[1]; 15 µM
  viability: 0.523
[2]; 0.024 µM
  viability: 0.978
[2]; 0.12 µM
  viability: 0.952
[2]; 0.6 µM
  viability: 0.898
[2]; 3 µM
  viability: 0.843
[2]; 15 µM
  viability: 0.704
[3]; 0.0032 µM
  viability: 1.07
[3]; 0.016 µM
  viability: 1.07
[3]; 0.08 µM
  viability: 1.08
[3]; 0.4 µM
  viability: 1.01
[3]; 2 µM
  viability: 1.03
[4]; 0.0008 µM
  viability: 0.916
[4]; 0.004 µM
  viability: 0.867
[4]; 0.02 µM
  viability: 0.882
[4]; 0.1 µM
  viability: 0.878
[4]; 0.5 µM
  viability: 0.9
[5]; 0.024 µM
  viability: 1.04
[5]; 0.12 µM
  viability: 1.06
[5]; 0.6 µM
  viability: 0.999
[5]; 3 µM
  viability: 1.05
[5]; 15 µM
  viability: 1.01
[6]; 0.024 µM
  viability: 0.772
[6]; 0.12 µM
  viability: 0.783
[6]; 0.6 µM
  viability: 0.888
[6]; 3 µM
  viability: 0.842
[6]; 15 µM
  viability: 0.868
[7]; 0.024 µM
  viability: 1.04
[7]; 0.12 µM
  viability: 1.01
[7]; 0.6 µM
  viability: 1.02
[7]; 3 µM
  viability: 1.06
[7]; 15 µM
  viability: 0.851
[8]; 0.032 µM
  viability: 1.04
[8]; 0.16 µM
  viability: 0.999
[8]; 0.8 µM
  viability: 0.963
[8]; 4 µM
  viability: 1.08
[8]; 20 µM
  viability: 1.06
[9]; 0.024 µM
  viability: 0.915
[9]; 0.12 µM
  viability: 0.92
[9]; 0.6 µM
  viability: 0.871
[9]; 3 µM
  viability: 0.824
[9]; 15 µM
  viability: 0.834
[10]; 0.016 µM
  viability: 1.09
[10]; 0.08 µM
  viability: 1.07
[10]; 0.4 µM
  viability: 0.98
[10]; 2 µM
  viability: 1
[10]; 10 µM
  viability: 0.88
[11]; 0.0016 µM
  viability: 1.04
[11]; 0.008 µM
  viability: 1.03
[11]; 0.04 µM
  viability: 0.996
[11]; 0.2 µM
  viability: 0.982
[11]; 1 µM
  viability: 0.957
[12]; 0.0032 µM
  viability: 0.938
[12]; 0.016 µM
  viability: 1.07
[12]; 0.08 µM
  viability: 1.05
[12]; 0.4 µM
  viability: 1.05
[12]; 2 µM
  viability: 1.11
[13]; 0.008 µM
  viability: 0.876
[13]; 0.04 µM
  viability: 0.866
[13]; 0.2 µM
  viability: 0.883
[13]; 1 µM
  viability: 0.869
[13]; 5 µM
  viability: 0.797
[14]; 0.024 µM
  viability: 0.903
[14]; 0.12 µM
  viability: 0.94
[14]; 0.6 µM
  viability: 0.914
[14]; 3 µM
  viability: 1.01
[14]; 15 µM
  viability: 0.251
[15]; 0.032 µM
  viability: 1.01
[15]; 0.16 µM
  viability: 1.03
[15]; 0.8 µM
  viability: 1.03
[15]; 4 µM
  viability: 1.07
[15]; 20 µM
  viability: 1.07

## primary MCL patient cells (S041)
[1]; 0.024 µM
  viability: 0.933
[1]; 0.12 µM
  viability: 0.948
[1]; 0.6 µM
  viability: 0.9
[1]; 3 µM
  viability: 0.738
[1]; 15 µM
  viability: 0.439
[2]; 0.024 µM
  viability: 0.938
[2]; 0.12 µM
  viability: 0.965
[2]; 0.6 µM
  viability: 0.897
[2]; 3 µM
  viability: 0.854
[2]; 15 µM
  viability: 0.605
[3]; 0.0032 µM
  viability: 1
[3]; 0.016 µM
  viability: 0.884
[3]; 0.08 µM
  viability: 0.64
[3]; 0.4 µM
  viability: 0.133
[3]; 2 µM
  viability: 0.0285
[4]; 0.0008 µM
  viability: 0.907
[4]; 0.004 µM
  viability: 0.919
[4]; 0.02 µM
  viability: 0.947
[4]; 0.1 µM
  viability: 0.965
[4]; 0.5 µM
  viability: 1.01
[5]; 0.024 µM
  viability: 1.25
[5]; 0.12 µM
  viability: 1.16
[5]; 0.6 µM
  viability: 1.04
[5]; 3 µM
  viability: 1.11
[5]; 15 µM
  viability: 1
[6]; 0.024 µM
  viability: 0.901
[6]; 0.12 µM
  viability: 0.905
[6]; 0.6 µM
  viability: 0.933
[6]; 3 µM
  viability: 0.907
[6]; 15 µM
  viability: 0.918
[7]; 0.024 µM
  viability: 1.09
[7]; 0.12 µM
  viability: 1.06
[7]; 0.6 µM
  viability: 0.972
[7]; 3 µM
  viability: 0.802
[7]; 15 µM
  viability: 0.637
[8]; 0.032 µM
  viability: 1.04
[8]; 0.16 µM
  viability: 0.982
[8]; 0.8 µM
  viability: 0.968
[8]; 4 µM
  viability: 0.941
[8]; 20 µM
  viability: 0.733
[9]; 0.024 µM
  viability: 0.967
[9]; 0.12 µM
  viability: 0.967
[9]; 0.6 µM
  viability: 0.98
[9]; 3 µM
  viability: 1.05
[9]; 15 µM
  viability: 1.05
[10]; 0.016 µM
  viability: 1.15
[10]; 0.08 µM
  viability: 1.07
[10]; 0.4 µM
  viability: 1.02
[10]; 2 µM
  viability: 1.09
[10]; 10 µM
  viability: 0.93
[11]; 0.0016 µM
  viability: 0.89
[11]; 0.008 µM
  viability: 0.872
[11]; 0.04 µM
  viability: 0.857
[11]; 0.2 µM
  viability: 0.855
[11]; 1 µM
  viability: 0.838
[12]; 0.0032 µM
  viability: 1.01
[12]; 0.016 µM
  viability: 1.03
[12]; 0.08 µM
  viability: 1.03
[12]; 0.4 µM
  viability: 0.943
[12]; 2 µM
  viability: 0.94
[13]; 0.008 µM
  viability: 0.887
[13]; 0.04 µM
  viability: 0.809
[13]; 0.2 µM
  viability: 0.672
[13]; 1 µM
  viability: 0.42
[13]; 5 µM
  viability: 0.478
[14]; 0.024 µM
  viability: 0.953
[14]; 0.12 µM
  viability: 0.988
[14]; 0.6 µM
  viability: 0.965
[14]; 3 µM
  viability: 0.968
[14]; 15 µM
  viability: 0.386
[15]; 0.032 µM
  viability: 0.971
[15]; 0.16 µM
  viability: 0.95
[15]; 0.8 µM
  viability: 0.993
[15]; 4 µM
  viability: 0.896
[15]; 20 µM
  viability: 0.469
